The values below come from US8110655B2, “Method to promote hair growth and/or delay or treat hair loss by administering a TGF-β antagonist or inhibitor” (Auxagen, Inc., priority 2006, dated 2012).

Assay [1] concerns partial-thickness pig skin burn wounds. In words: Partial-thickness porcine burn wound outcomes. It counts as in vivo. The procedure:
Animals were sedated with Talazine® ([…] Zolazepam, Fort Dodge Lab, Fort Dodge, Iowa) 5 mg/kg IM. The pigs were then intubated endotracheally and maintained under a surgical plane of anesthesia with isoflurane 0.5-2.5% in room air. The flank and back hair was clipped with hair clippers and the skin was scrubbed with a povidine iodine solution. Standardized partial thickness burns were created on the animals' backs and flanks by applying a 2.5 cm by 2.5 cm, 150 gram aluminum bar preheated in hot water to 80° C. The heated bar was wiped dry just prior to application to prevent water droplets from creating a steam burn on the skin. The bar was then placed at a vertical position perpendicular to the skin's surface and applied for a period of 20 seconds with all pressure supplied by gravity. […] In order to simulate burn blister debridement and enhance the absorption of the topical agents, the necrotic epidermis was gently removed by rubbing the burn with dry gauze. Removal of the necrotic epidermis results in delayed reepithelialization, and increased scar formation^17. Twenty burns were inflicted on each of 2 pigs (evenly distributed between both side of the pigs), for a total of 40 burns. The agent used in the studies is PEG-β1^25 (SEQ ID NO: 8) This particular peptide was chosen after screening seven pentacosapeptides whose amino acids overlap and cover most of the human TGF-β1 molecule, the monomer of which has 112 amino acid residues. […] Furthermore, the chosen peptide was also shown to block the cellular responses to TGF-β1 such as DNA synthesis and transcriptional activation of PAI-1. […] TGF-β peptantagonist PEG-β1^25 in PBS was mixed with Sterile IntraSite gel from Smith and Nephew Medical, Ltd. (UK) at a ratio of 1:3 (v/v). The pigs were randomized to treatment with topical PEG-β1^25 peptantagonist (SEQ ID NO: 8) or its vehicle (carboxy methylcellulose, IntraSite Gel, Smith and Nephew, Largo, Fla.) immediately after injury and at days 3, 5, 7, 10, 14, 18, 21, and 25. A thin layer of the topical treatment was applied with a sterile metal spatula. Group randomization order was determined by drawing unlabeled forms from an opaque container. After applying the topical therapy, the burns were covered with dry non-adherent gauze ([…] Company, Mansfield, Mass.). The burned areas were then covered with a gauze bandage roll (Conform®), Kendall Healthcare Products Company, Mansfield, Mass.) and an adhesive elastic bandage (Elastoplast®, Beiersdorf-Jobst, Inc., Rutherford College, N.C.). The adhesive dressing was secured to the skin at a distance from the burns with skin staples. Animals were observed frequently for signs of pain or discomfort and treated with IM buprenorphine 0.01 mg/kg as needed. Dressing changes were performed with each application of the topical agents. At each dressing change all gauze dressings were removed and the wounds were observed and the study agent was reapplied. All burns were then re-covered with non-adherent gauze and elastic wrap as previously described. Full thickness 4-mm punch biopsies (Miltex Instrument Company Inc., Lake Success, N.Y.) were taken after 7, 10, and 14 days for blinded histopathological evaluation by a board-certified dermatopathologist masked to treatment assignment. The entire wound was excised at 28 days and submitted for histological evaluation. Digital photos were taken prior to biopsy to determine the presence of wound contraction defined as an hourglass like shape. Histopathological studies were done on formalin-fixed, alcohol-dehydrated, xylene-cleared, paraffin-embedded, hematoxylin and eosin stained 5 μm sections using conventional microscopy. The primary outcome was the percent of wounds healing with wound contraction. Secondary outcomes were percent reepithelialization, percent wound infection, and the percent of wounds with scars extending through the entire thickness of the dermis. […]

Assay [2] concerns TGF-β receptors in mink lung epithelial cells. In words: Inhibition of labeled TGF-β binding to TGF-β receptors in mink lung epithelial cells. To be noted: screen of seven pentacosapeptides. From the text: (§1) By “treating or preventing alopecia” is meant the ability to cure, reduce or prevent one or more clinical symptoms of alopecia, including, but not limited to, hair loss, cornification, scaling, uneven thickness, persistent itch, inflammation, and rapid epithelial cell turnover in the skin. Treating alopecia also includes the promotion of hair growth at the site of the hair loss. The methods of the invention also encompass promotion or stimulation of hair growth in general (e.g. to thicken naturally thin hair). […] It was also discovered that at least four consecutive amino acids comprising W(or R)XXD (wherein X is any amino acid) motif in the sequences, determines their potencies and that they block TGF-β-induced growth inhibition and TGF-β-induced expression of PAI-1 in mink lung epithelial cells and other cell types (U.S. Pat. No. 6,500,920 issued Dec. 31, 2002). As was previously disclosed by the inventors, such peptides are effective in inhibiting, ameliorating or reversing the effects of TGF-β in biological systems including but not limited to reducing scarring wounds, to prevent lung injury in adult respiratory distress syndrome (ARDS), and injuries of other tissues caused by pharmacological agents (e.g. bladder injury caused by cyclophosphamide). […]

The test system of assay [3] is mink lung epithelial cells. In words: Block of TGF-β-induced growth inhibition / DNA synthesis response. It counts as cell-based.
From the text: as §1

The next assay concerns PAI-1. Briefly: Block of TGF-β-induced expression / transcriptional activation of PAI-1. It counts as cell-based, mink.
From the text: as §1

Setting [4] is: day 28, of 20 burns, full thickness scars.

Where no end group is shown, it is not given here. PEG = not defined here

For “PEG-β1^25: β1^25 (SEQ ID NO: 8) pegylated at the N-terminal alpha-amino group and at the epsilon-amino group ({PEG}-ANFSLGPSPYIWSLDTQYSK(PEG)VLALY; reading uncertain; listed as Homo Sapiens)”, in assay [1] (day 7, 20 burns), the “Percent wound reepithelialization, day 7” value was 14.2 (28.8) %. In assay [1] (day 10, 20 burns), the “Percent wound reepithelialization, day 10” value is reported as 46.3 (44.4) %. The “Percent wound reepithelialization, day 14” value in assay [1] (day 14, 20 burns) is listed as 91.9 (25.7) %. Moreover, in assay [1] (day 14, of 20 burns), the “% wounds completed reepithelialized, day 14” value is on record as 90% and the “No. wounds completed reepithelialized, day 14” value is 18. In addition, in assay [1] (day 28, of 20 burns), the “% contracted wounds, day 28” value turned out to be 35% and the “No. contracted wounds, day 28” value amounted to 7. For the same substance, in assay [1] (setting [4]), the “% deep scars, day 28” value is 10% and the “No. deep scars, day 28” value is reported as 2. Besides, the “hair growth in treated wounds” value in assay [1] (partial-thickness burn, topical gel) is “exhibited hair growth”. In addition, the “Mean Difference (95% CI) in percent wound reepithelialization, day 7” value in assay [1] (versus control vehicle, day 7) was 7.9 (−8.2-24.1). The “Mean Difference (95% CI) in percent wound reepithelialization, day 10” value in assay [1] (versus control vehicle, day 10) was 20.9 (−6.1-48.0). Besides, the “Mean Difference (95% CI) in percent wound reepithelialization, day 14” value in assay [1] (versus control vehicle, day 14) was 19.5 (−2.5-41.5). In assay [2], the “inhibition of binding of labeled TGF-β1 to its receptor” value is on record as “completely inhibited”. In addition, in assay [3], the “block of cellular response to TGF-β1: DNA synthesis” value was “block”. Also, in the assay on PAI-1, the “block of cellular response to TGF-β1: transcriptional activation of PAI-1” value is listed as “block”.
